{"source": "patent US20250228801A1", "about": "“USE OF Galectin-1 INHIBITOR IN PREPARATION OF DRUG FOR TREATING PULMONARY FIBROSIS” (Institute of Basic Medical Sciences, CAMS, priority 2024, published 2025)", "key": {"silicosis mice [1]": {"test_system": "silicosis mice", "assay": "Pulmonary function test in silicosis mouse model", "type": "in vivo", "details": "OTX008 5 mg/kg i.p.", "from_the_text": "(§1) Male C57BL/6J mice (aged 8 weeks and weighing 25-30 g) were selected and housed in an SPF grade laboratory animal room, and the model of silicosis was constructed by one-time intratracheal instillation of silica (Si); the mice were divided into four groups (n=9): • 1) PBS+vehicle group: tracheal infusion of PBS, intraperitoneal injection of vehicle (10% DMSO+90% corn oil) 2 weeks later, once every other day for 3 weeks; • 2) PBS+OTX008 group: PBS was given by tracheal infusion, and 2 weeks later, OTX008 (5 mg/kg) was given by intraperitoneal injection, once every other day for 3 weeks; • 3) Si+vehicle group: Silica suspension (300 mg/mL, 40 μL) was given tracheal infusion, and vehicle (10% DMSO+90% corn oil) was given intraperitoneal injection 2 weeks later, once every other day for 3 weeks; and • 4) Si+OTX008 group: Silica suspension (300 mg/mL, 40 μL) was given tracheal infusion, and OTX008 (5 mg/kg) was given intraperitoneal injection 2 weeks later, once every other day for 3 weeks.\nAnesthetized mice were fixed on an experimental table, and mouse lung function was detected by a pulmonary function testing system (DSI Buxco, USA). Before experiment, the mouse was anesthetized by intraperitoneal injection of 0.4 mL/100 g 2% pentobarbital, tracheotomy was performed, a trachea cannula was inserted, and a ventilator was connected. Next, FRC, PV, FV, and RC were automatically tested by a PET system. Indicators closely related to lung function changes in silicosis for statistical analysis, including lung volume indicators such as IC, and pulmonary ventilation function tests such as RI, Cdyn, and Cchord."}, "Galectin-1": {"test_system": "Galectin-1", "assay": "Galectin-1 levels in silicosis mice (qPCR of lung tissue, ELISA of BALF)", "type": "in vivo, mouse", "from_the_text": "as §1\n(§2) All mice were sacrificed after the administration, and the corresponding samples were collected for detection.\n(§3) Concentrations of inflammatory factors IL-1β and IL-6 as well as Galectin-1 in mouse BALF were detected by using ELISA kits.\n(§4) Lung tissue RNA of all mice was extracted; cDNA was obtained by using a reverse transcription kit (KR103, Tiangen Biotechnology, Beijing, China); qPCR was conducted by using a SYBR Green I Q-PCR Kit (TransGen Biotech, Beijing China); data collection and analysis were conducted by Bio-Rad IQ5 system."}, "silicosis mice [2]": {"test_system": "silicosis mice", "assay": "Pathological staining (HE, Masson) of lung tissue of silicosis mice", "type": "in vivo, mouse", "details": "OTX008 5 mg/kg i.p.", "from_the_text": "as §1\nThe left lung was fixed in 4% paraformaldehyde for 72 h, dehydrated, paraffin-embedded, sectioned (to 5 μm), and subjected to HE staining and Masson staining, respectively. The HE staining was conducted to calculate the inflammation score based on Szapiel's score. The scoring method included no inflammation (grade 0), mild (grade 1), moderate (grade 2), and severe (grade 3); Masson staining was conducted to evaluate the degree of fibrosis based on the King score. Specifically, different silicosis nodules were evaluated for fibrosis degree according to King's method, with levels ranging from 0 to 5. Each silicosis nodule was assigned a corresponding fibrosis damage score, which was calculated as the fibrosis level score (0-5) multiplied by its percentage of the total area of the tissue section. The sections were scanned, photographed and counted by a 3D HISTECH digital slide scanner."}, "[3]": {"test_system": "fibrosis factors Fn-1 and Col-I, hydroxyproline", "assay": "Fibrosis factors (qPCR) and HYP content in lung tissue of silicosis mice", "type": "in vivo, mouse", "details": "OTX008 5 mg/kg i.p.", "from_the_text": "as §1, §2, §4\n30 mg of mouse lung tissue was detected using an HYP kit (NBP2-59747, Novus Biologicals, Littleton, CO, USA)."}, "[4]": {"test_system": "inflammatory factors IL-1β and IL-6", "assay": "Inflammatory factors in silicosis mice (qPCR of lung tissue, ELISA of BALF)", "type": "in vivo, mouse", "details": "OTX008 5 mg/kg i.p.", "from_the_text": "as §1, §2, §3, §4"}}, "data": [{"molecule": "CN(C)CCNC(=O)COc1c2cccc1Cc1cccc(c1OCC(=O)NCCN(C)C)Cc1cccc(c1OCC(=O)NCCN(C)C)Cc1cccc(c1OCC(=O)NCCN(C)C)C2", "note": "[OTX008]", "values": [{"measurement": "lung function: inspiratory capacity (IC)", "setting": "silicosis mice [1]; FIG. 3A", "value": "improved significantly"}, {"measurement": "lung function: inspiratory resistance (RI)", "setting": "silicosis mice [1]; FIG. 3B", "value": "improved significantly"}, {"measurement": "lung function: dynamic compliance (Cdyn)", "setting": "silicosis mice [1]; FIG. 3C", "value": "improved significantly"}, {"measurement": "lung function: quasi-static compliance (Cchord)", "setting": "silicosis mice [1]; FIG. 3D", "value": "improved significantly"}, {"measurement": "Galectin-1 translation level in alveolar lavage fluid", "setting": "Galectin-1; OTX008 5 mg/kg i.p., ELISA", "value": "decreased"}, {"measurement": "Lgals1 transcription level in lung tissue", "setting": "Galectin-1; OTX008 5 mg/kg i.p., qPCR", "value": "decreased"}, {"measurement": "levels of Galectin-1 (transcription and translation)", "setting": "Galectin-1; OTX008 5 mg/kg intraperitoneal, once every other day for 3 weeks", "value": "effectively inhibited"}, {"measurement": "progression of pulmonary fibrosis", "setting": "silicosis mice [2]", "value": "effectively alleviate"}, {"measurement": "fibrosis lesions (Masson staining)", "setting": "silicosis mice [2]; FIGS. 7A-7D", "value": "reduced"}, {"measurement": "inflammatory infiltration in the lungs", "setting": "silicosis mice [2]; HE staining", "value": "reduced"}, {"measurement": "degree of the disease (lesions)", "setting": "silicosis mice [2]; Masson staining", "value": "alleviated"}, {"measurement": "collagen-specific amino acid HYP in lung tissue", "setting": "[3]; HYP kit, FIG. 6C", "value": "decreased"}, {"measurement": "transcription level of Col-I in lung tissue", "setting": "[3]; qPCR, FIG. 6A", "value": "decreased"}, {"measurement": "transcription level of Fn-1 in lung tissue", "setting": "[3]; qPCR, FIG. 6B", "value": "decreased"}, {"measurement": "concentration of IL-1β in alveolar lavage fluid", "setting": "[4]; ELISA, FIG. 4C", "value": "decreased"}, {"measurement": "concentration of IL-6 in alveolar lavage fluid", "setting": "[4]; ELISA, FIG. 4D", "value": "decreased"}, {"measurement": "transcription level of Il-1β in lung tissue", "setting": "[4]; qPCR, FIG. 4A", "value": "decreased"}, {"measurement": "transcription level of Il-6 in lung tissue", "setting": "[4]; qPCR, FIG. 4B", "value": "decreased"}]}]}
